We go through 13 molecules from patent US4000269A, “S-(α-substituted-arylmethylthio, -arylmethylsulfinyl, and -arylmethylsulfonyl)methyl phosphorus esters used as insecticides” (priority 1975, dated 1976).

Molecules are shown by their SMILES. Read-outs that look alike come from different tables or passages of the source.

Data set [1] concerns Southern corn rootworm larvae (Diabrotica undecimpunctata). Kind of data set: Southern Corn Rootworm Control (treated soil, dust on talc). Particulars: 144 h, potting soil, mortality after 6 days, read-out: Percent Control of Southern Corn Rootworm Larvae; for mortality at 1120.85 g/ha: 1 lbs./Acre; for mortality at 11208.5 g/ha: 10 lbs./Acre; for mortality at 56042.5 g/ha: 50 lbs./Acre. Format: in vivo. How it is done: Compounds are prepared as dusts on talc. The compounds are dissolved in acetone, and appropriate rates obtained by serial dilution. One and one-quarter milliliters of solution is pipetted onto a standard volume of dust in 1 -ounce jars, and the acetone allowed to evaporate. Twenty-five milliliters of moist soil and about 200 millet seeds are placed in the jar, capped and the contents thoroughly mixed. Ten second-instar larvae of the Southern corn rootworm (Diabrotica undecimpunctata ) are then placed in each jar. Mortality counts are made after 6 days and percent mortality determined.

Data set [2] is described as follows: Mammalian Toxicity Studies (LD50 for Mice). The note with it: mouse, in vivo; 14-day observation; corn oil. More on the design: species or system mice (Carworth Farms Nelson, CFI strain). The protocol: (§1) Twenty male albino rats or mice of the Carworth Farms Nelson strain (CFI strain for mice)(or other suitable strain) weighing approximately 90 to 120 grams (18-20g. for mice) are selected. Basically, these animals are fasted 24 hours before dosing. Mice are not fasted.
(§2) For materials which are soluble or easily dispersed in an aqueous medium, a 20% solution or suspension is prepared in an aqueous solution of 0.2% agar and 0.1% "Tween" 80. The same series of dosages (grams or milliliters of material per kilogram of animal body weight) are used for all materials in this test. If no previous information is available on the compound or its analogs, a maximum dosage of 10 g/kg is selected to differ by a geometric factor of 2 from the preceding dose, i.e., 10, 5, 2.5, 1.25 g/kg. A sufficient number of dosages are given so as to bracket a 50% response. The animals are observed for several hours after dosing and daily over a 14-day observation period. At the end of this period the survivors are sacrificed, weighed and subjected to a gross autopsy. The results are tabulated and the LD50 is calculated by the method of moving averages using the tables constructed by Weil. [Weil, C. S., Biometrics, 8: (3), 249-263, 1952].
(§3) Samples received as liquids may be administered undiluted or as suspensions in aqueous Agar-Tween, depending on the viscosity of the material. If the material is believed to be relatively non-toxic, an initial maximum dosage of 10 ml/kg is selected and subsequent dosages are selected based upon the severity of gross signs of toxicity.
(§4) For organic phosphate anticholinesterase insecticides, the procedure is modified somewhat. The phosphates are readied for administration by preparing a solution or dispersion in corn oil (Mazola), the concentration of which is adjusted so that the total volume of the dose is 20 ml/kg ([…]) in every case. The initial solution is prepared by deciding upon the maximum dosage in mg/kg to be administered and preparing 50 ml. (10 in mouse test) of this solution of such a concentration that the desired dosage in mg/kg is delivered when 2 ml. (0.5 ml. in mouse test) of the solution is administered for 100 g (20 g in mouse) of rat body weight. Serial dilutions differing by a factor of two are then prepared for each lower dosage level.

Data set [3] in a line: Mammalian Toxicity Studies (LD50 for Rats). More on the design: species or system male albino rats (Carworth Farms Nelson strain). Particulars: rat, in vivo; 14-day observation; corn oil. How it is done: as §1, §2, §3, §4
The subject of a further data set is Mites. Description: Cut-Stem Systemic Test (Mites). Format: in vivo. The note with it: 100 ppm. emulsion, 3 days. The protocol:
(§5) The compound to be tested is formulated as an emulsion containing 0.1 gram of test material, 0.2 gram of Alrodyne 315 emulsifier, 10 ml. of acetone and 90 ml. of water. This is diluted tenfold with water to give a 100 ppm. emulsion for the initial test. A sieva lima bean plant with only the primary leaves unfolded is cut off just above soil level and inserted into a 2-ounce bottle of 100 ppm. emulsion and held in place by a bit of cotton wrapped around the stem. The bottle is then placed in a ventilated box with the leaves extending outside the box, such that any possible fumes from the compound will be drawn out the end of the box rather than rising to affect the test leaves. After holding 3 days at 80° F. and 60% R.H., one leaf from each plant is placed on a moist filter paper in the bottom of a petri dish. Ten third-instar Southern armyworm larvae are then added to each dish and mortality counts made after holding another 3 days at 80° F. and 60% R.H.
The same procedure described above is employed in the mite systemic evaluation excepting that the sieva lima bean leaves are infested with mites, both adult and nymphs, while the leaves are in the ventilated box. After 3 days the leaves are removed and examined under a microscope to determine percent mortality. Data obtained are reported in the Table IV below where it can be seen that the compounds of the present invention are systemically effective insecticidal agents.

Data set [4] deals with False wireworm larvae (Eleodes suturalis). Kind of data set: False Wireworm Control (treated soil, dust on talc). Format: in vivo. Particulars: 144 h, potting soil, mortality after 6 days, read-out: Percent Control of False Wireworms; for mortality at 1120.85 g/ha: 1 lbs./Acre; for mortality at 11208.5 g/ha: 10 lbs./Acre; for mortality at 56042.5 g/ha: 50 lbs./Acre. How it is done:
Compounds are prepared as dusts on talc. The compounds are dissolved in acetone, and appropriate rates obtained by serial dilution. One and one-quarter milliliters of solution is pipetted onto a standard volume of dust in 1 -ounce jars, and the acetone allowed to evaporate. Twenty-five milliliters of moist soil and about three wheat seeds are placed in the jar, capped, and the contents thoroughly mixed. Ten False wireworm larvae (Eleodes suturalis ), 10 days old, are then placed in each jar. Mortality counts are made after 6 days and percent mortality determined.

The subject of another data set is Southern armyworm larvae. Kind of data set: Cut-Stem Systemic Test (Southern Armyworm). It counts as in vivo. Particulars: Spodoptera eridania, 72 h, read-out: % Mortality, Southern Armyworms (Systemic Insecticidal Activity). How it is done:
as §5

In a further data set the test system is Rats. Further details: unit not given here. The note with it: Value reported in the literature; 20160 min; cited from earlier work.
Where [5] appears, read: cut-stem, 100 ppm. emulsion, larvae held 3 days.

What is called LD50 is the dose expected to kill half of the subjects tested. In the case of `CCOP(=S)(OCC)SCSC(C)(C)c1ccccc1` [Example 2, S-(α,α-Dimethylbenzylthio)methyl O,O-Diethyl Phosphorodithioate], the mortality at 1120.85 g/ha came to 90% in data set [1] and 0% in data set [4]. Besides, the mortality at 11208.5 g/ha in data set [1] and in data set [4] was 100% in each case. The mortality at 56042.5 g/ha in data set [1] and in data set [4] was 100% in each case. In addition, the LD50 at 336 h in data set [2] was 71 mg/kg; in data set [3], 18 mg/kg. Also, the “% Mortality, Mites (Systemic Insecticidal Activity)” value (from here on “% Mortality, Mites”) in the data set on Mites was 80%. Further, the mortality at 100 µg/mL in the data set with Southern armyworm larvae was 100%.
Regarding `COP(=S)(OC)SCSC(C)(C)c1ccccc1` [Example 5, S-(α,α-Dimethylbenzylthio)methyl O,O-Dimethyl Phosphorodithioate], in data set [1], the mortality at 1120.85 g/ha stood at 100%, the mortality at 11208.5 g/ha worked out at 100% and the mortality at 56042.5 g/ha was 100%. In addition, the LD50 at 336 h in data set [2] was 117 mg/kg. For the same molecule, the LD50 at 336 h in data set [3] was determined as 28 mg/kg. Moreover, in data set [4], the mortality at 1120.85 g/ha amounted to 100%, the mortality at 11208.5 g/ha stood at 100% and the mortality at 56042.5 g/ha came out at 100%.
For `COP(=S)(OC)SCSC(C)(C)c1ccc(Cl)cc1` [Example 7, S-(p-Chloro-α,α-dimethylbenzylthio)methyl O,O-Dimethyl Phosphorodithioate], in data set [1], the mortality at 1120.85 g/ha was determined as 100%, the mortality at 11208.5 g/ha is 100% and the mortality at 56042.5 g/ha worked out at 100%. In data set [3], this molecule showed an LD50 at 336 h of 230 mg/kg. For the same molecule, in the data set with Mites, the “% Mortality, Mites” value is 100%. The mortality at 100 µg/mL in the data set on Southern armyworm larvae (setting [5]) is 100%.
`CCOP(=S)(OCC)SCSC(C)(C)c1ccc(Cl)c(Cl)c1` [Example 8, S-(3,4-Dichloro-α,α-dimethylbenzylthio)methyl O,O-Diethyl Phophorodithioate] displayed an LD50 at 336 h in data set [3] of 100 mg/kg. In the data set on Mites, the “% Mortality, Mites” value stood at 100%. Besides, the mortality at 100 µg/mL in the data set on Southern armyworm larvae (setting [5]) was 100%.
As to `COP(=S)(OC)SCSC(C)(C)c1ccc(Cl)c(Cl)c1` [Example 11, S-(3,4-Dichloro-α,α-dimethylbenzylthio)methyl O,O-Dimethyl Phosphorodithioate], in data set [1], the mortality at 1120.85 g/ha turned out to be 100%, the mortality at 11208.5 g/ha stood at 100% and the mortality at 56042.5 g/ha was determined as 100%. Moreover, the LD50 at 336 h in data set [3] is > 200 mg/kg. The “% Mortality, Mites” value with Mites came to 30%. For the same molecule, the mortality at 100 µg/mL in the data set on Southern armyworm larvae (setting [5]) came to 90%.
For the molecule `CCCSP(=O)(OCC)SCSC(C)(C)c1ccccc1` (stereo not drawn) [Example 12, S-(α,α-Dimethylbenzylthio)methyl O-Ethyl S-Propyl Phosphorodithioate], in data set [1], the mortality at 1120.85 g/ha worked out at 0%, the mortality at 11208.5 g/ha was found to be 100% and the mortality at 56042.5 g/ha worked out at 100%. Also, the LD50 at 336 h in data set [3] was determined as 34 mg/kg. Besides, in the data set with Mites, the “% Mortality, Mites” value turned out to be 90%. In the data set on Southern armyworm larvae (setting [5]), the mortality at 100 µg/mL was 0%.
`COP(=S)(OC)SCSC(C)(C)c1ccc(Br)cc1` [Example 13, S-(p-Bromo-α,α-dimethylbenzylthio)methyl O,O-Dimethyl Phosphordithioate]: in data set [1], the mortality at 1120.85 g/ha is 90%, the mortality at 11208.5 g/ha worked out at 100% and the mortality at 56042.5 g/ha is 100%. For the same molecule, in data set [3], the 50% lethal dose (LD50) at 336 h was 280 mg/kg. For the same molecule, in the data set on Mites, the “% Mortality, Mites” value is recorded as 100%. Further, the mortality at 100 µg/mL in the data set with Southern armyworm larvae (setting [5]) was 100%.
With `CCOP(=S)(OCC)SCSC(C)c1ccccc1` (stereo not drawn) [Example 15, S-(α-Methylbenzylthio)methyl O,O-Diethyl Phosphorodithioate], in data set [1], the mortality at 1120.85 g/ha turned out to be 80%, the mortality at 11208.5 g/ha worked out at 100% and the mortality at 56042.5 g/ha turned out to be 100%. Also, the median lethal dose (LD50) at 336 h in data set [2] turned out to be 67 mg/kg. In data set [4], the mortality at 1120.85 g/ha stood at 0%, the mortality at 11208.5 g/ha was 100% and the mortality at 56042.5 g/ha came out at 100%.
With `COP(=O)(SC)SCSC(C)(C)c1ccc(Cl)cc1` (stereo not drawn) [Example 16, S-(p-Chloro-α,α-dimethylbenzylthio)methyl O-Methyl S-Methyl Phosphorodithioate], in data set [1], the mortality at 1120.85 g/ha was determined as 0%, the mortality at 11208.5 g/ha worked out at 100% and the mortality at 56042.5 g/ha turned out to be 100%. Moreover, the “% Mortality, Mites” value with Mites is listed as 30%. Besides, the mortality at 100 µg/mL with Southern armyworm larvae (setting [5]) is 0%.
As for `COP(=S)(OC)SCSC(C)(C)c1cc(Cl)ccc1Cl` [Example 25, S-(2,5-Dichloro-α,α-dimethylbenzylthio)methyl O,O-Dimethyl Phosphorodithioate], in data set [1], the mortality at 1120.85 g/ha was 0%, the mortality at 11208.5 g/ha turned out to be 100% and the mortality at 56042.5 g/ha came out at 100%. In addition, the 50% lethal dose (LD50) at 336 h in data set [3] was determined as 800 mg/kg.
For the molecule `CCOP(=S)(OCC)SC[S+]([O-])C(C)(C)c1ccccc1` (stereo not drawn) [Example 27, S-(α,α-Dimethylbenzylsulfinyl)methyl O,O-Diethyl Phosphorodithioate], in data set [1], the mortality at 1120.85 g/ha turned out to be 0%, the mortality at 11208.5 g/ha turned out to be 100% and the mortality at 56042.5 g/ha worked out at 100%. In addition, the median lethal dose (LD50) at 336 h in data set [2] worked out at 88 mg/kg. Further, in data set [4], the mortality at 1120.85 g/ha is 0%, the mortality at 11208.5 g/ha is 100% and the mortality at 56042.5 g/ha was 100%.
For the molecule `CCOP(=S)(OCC)SCSCC` [reference compound], the 50% lethal dose (LD50) at 336 h in data set [2] is 5.6 mg/kg; in data set [3], 1 to 5 mg/kg.
`CCOP(=S)(OCC)SCSCc1ccccc1` [reference compound] had an LD50 at 336 h in data set [2] of 67 mg/kg. In addition, the “LD50 Rats” value in the data set on Rats is listed as 25.
